Measured values taken from article PMC11247499, “2,8-Disubstituted-1,5-naphthyridines as Dual Inhibitors of Plasmodium falciparum Phosphatidylinositol-4-kinase and Hemozoin Formation with In Vivo Efficacy” (Journal of Medicinal Chemistry, 2024).
Converted amounts (≈) assume the structure as drawn. Where two headings read alike, the source gives them in different places.

Columns and labels:
[1] = test system: β-hematin (βH) formation; test: NP-40 mediated cell-free β-hematin assay; settings: read-out: β-hematin IC50
[2] = biological target: PvPI4K (Plasmodium vivax, UniProt A5KB26); test: biochemical; settings: purified recombinant PvPI4K, 10 μM ATP, ADP-Glo; mean of N ≥ 2; read-out: PvPI4K IC50 ± SD
[3] = test system: P. falciparum NF54 strain; test: Antiplasmodial activity, parasite lactate dehydrogenase assay, NF54; assay type: cell-based, Plasmodium falciparum; settings: parasite lactate dehydrogenase assay over 72 h, read-out: Pf IC50 ± SD NF54
[4] = test system: Chinese Hamster Ovary (CHO) cell line; test: cells; assay type: cell-based; settings: MTT assay over 48h, read-out: CHO IC50
[5] = Solubility, miniaturized shake flask method; settings: aqueous solution
[6] = test system: multidrug-resistant strain, K1; test: Antiplasmodial activity, parasite lactate dehydrogenase assay, K1; assay type: cell-based, Plasmodium falciparum; settings: parasite lactate dehydrogenase assay over 72 h, read-out: Pf IC50 ± SD K1
[7] = test system: P. falciparum PI4K conditional knockdown line; test: microbe, parasite or virus in culture; assay type: cell-based, Plasmodium falciparum
[8] = Plasmodium falciparum, NF54, 72 h
[9] = cell-free NP-40 detergent-mediated assay, n = 2
[10] = Plasmodium falciparum, K1, 72 h

PvPI4K, sequence (A5KB26 entry or part of it): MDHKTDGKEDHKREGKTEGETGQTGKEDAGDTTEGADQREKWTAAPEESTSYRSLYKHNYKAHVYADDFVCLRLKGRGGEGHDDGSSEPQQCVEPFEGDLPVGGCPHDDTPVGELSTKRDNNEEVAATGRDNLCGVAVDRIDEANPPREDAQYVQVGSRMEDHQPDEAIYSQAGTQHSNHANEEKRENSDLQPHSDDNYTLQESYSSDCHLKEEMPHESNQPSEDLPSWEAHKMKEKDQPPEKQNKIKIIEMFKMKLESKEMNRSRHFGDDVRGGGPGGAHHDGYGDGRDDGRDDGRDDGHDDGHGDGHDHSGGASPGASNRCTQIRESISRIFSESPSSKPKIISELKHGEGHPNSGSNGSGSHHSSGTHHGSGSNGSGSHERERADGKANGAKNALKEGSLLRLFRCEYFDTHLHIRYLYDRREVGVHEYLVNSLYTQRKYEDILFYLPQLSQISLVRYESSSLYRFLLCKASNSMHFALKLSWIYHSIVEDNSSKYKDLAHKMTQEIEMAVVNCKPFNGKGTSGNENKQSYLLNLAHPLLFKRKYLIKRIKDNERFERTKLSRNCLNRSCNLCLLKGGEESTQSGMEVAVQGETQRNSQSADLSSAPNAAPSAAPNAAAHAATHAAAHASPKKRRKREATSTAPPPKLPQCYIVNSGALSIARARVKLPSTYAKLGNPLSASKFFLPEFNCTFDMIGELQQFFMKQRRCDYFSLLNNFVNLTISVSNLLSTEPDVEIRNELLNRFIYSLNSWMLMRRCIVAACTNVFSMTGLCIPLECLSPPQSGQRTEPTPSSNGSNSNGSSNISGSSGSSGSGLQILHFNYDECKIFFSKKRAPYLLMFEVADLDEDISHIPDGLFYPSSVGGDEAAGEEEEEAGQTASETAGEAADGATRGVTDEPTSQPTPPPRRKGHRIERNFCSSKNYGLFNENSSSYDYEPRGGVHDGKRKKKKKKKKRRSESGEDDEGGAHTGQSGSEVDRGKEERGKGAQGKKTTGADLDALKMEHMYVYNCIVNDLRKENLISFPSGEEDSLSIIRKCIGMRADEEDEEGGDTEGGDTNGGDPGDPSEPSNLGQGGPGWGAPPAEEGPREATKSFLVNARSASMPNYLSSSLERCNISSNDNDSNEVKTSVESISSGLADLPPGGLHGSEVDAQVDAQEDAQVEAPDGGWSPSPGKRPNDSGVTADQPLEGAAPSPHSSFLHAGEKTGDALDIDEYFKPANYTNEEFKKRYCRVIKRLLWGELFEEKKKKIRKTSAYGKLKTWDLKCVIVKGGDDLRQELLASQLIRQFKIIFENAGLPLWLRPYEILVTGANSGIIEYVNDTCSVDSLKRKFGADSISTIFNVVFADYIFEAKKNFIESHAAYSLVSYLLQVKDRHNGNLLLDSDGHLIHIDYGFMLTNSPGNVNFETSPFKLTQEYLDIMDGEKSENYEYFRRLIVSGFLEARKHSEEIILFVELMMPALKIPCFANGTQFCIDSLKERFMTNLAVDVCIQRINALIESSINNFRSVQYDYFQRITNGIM

## CCN(CC)CCCC(C)Nc1ccnc2cc(Cl)ccc12 (stereo not drawn) [Chloroquine, reference compound]
[1]
  IC50: 21 ± 2.1 µM

## CS(=O)(=O)c1cccc(-c2ccc3nccc(NC4CCCNC4)c3n2)c1 (stereo not drawn) [Compound 8, 6-(3-Methylsulfonylphenyl)-N-piperidin-3-yl-1,5-naphthyridin-4-amine]
[2]
  IC50: 151 ± 72 nM
[3]; [8]
  IC50: 200 ± 2 nM
[4]; Cricetulus griseus, CHO
  IC50: 33.3 µM
[5]
  solubility at 20 h: 195 µM (≈ 74.6 µg/mL)
[1]; [9]
  IC50: > 500 µM

## CS(=O)(=O)c1cccc(-c2ccc3nccc(N4CC[C@@H](N)C4)c3n2)c1 [Compound 9, (3R)-1-[6-(3-Methylsulfonylphenyl)-1,5-naphthyridin-4-yl]pyrrolidin-3-amine]
[2]
  IC50: 199 ± 37 nM
[3]; [8]
  IC50: 100 ± 5 nM
[4]; Cricetulus griseus, CHO
  IC50: 22 µM
[5]
  solubility at 20 h: 200 µM (≈ 73.7 µg/mL)

## CC(=O)N[C@@H]1CCN(c2ccnc3ccc(-c4cccc(S(C)(=O)=O)c4)nc23)C1 [Compound 10, N-[(3R)-1-[6-(3-Methylsulfonylphenyl)-1,5-naphthyridin-4-yl]pyrrolidin-3-yl]acetamide]
[2]
  IC50: 76 ± 6 nM
[3]; [8]
  IC50: 890 ± 57 nM
[5]
  solubility at 20 h: 185 µM (≈ 75.9 µg/mL)

## CS(=O)(=O)c1cccc(-c2ccc3nccc(N4CC[C@@H](NC(N)=O)C4)c3n2)c1 [Compound 11, [(3R)-1-[6-(3-Methylsulfonylphenyl)-1,5-naphthyridin-4-yl]pyrrolidin-3-yl]urea]
[2]
  IC50: 39 ± 7 nM
[3]; [8]
  IC50: 630 ± 133 nM

## FC(F)(F)c1ccc(-c2ccc3nccc(NC4CCCNC4)c3n2)cn1 (stereo not drawn) [Compound 12, N-Piperidin-3-yl-6-[6-(trifluoromethyl)pyridin-3-yl]-1,5-naphthyridin-4-amine]
[2]
  IC50: 276 ± 33 nM
[3]; [8]
  IC50: 90 ± 1 nM
[4]; Cricetulus griseus, CHO
  IC50: 43 µM
[5]
  solubility at 20 h: 195 µM (≈ 72.8 µg/mL)
[1]; [9]
  IC50: 66 ± 1 µM

## N[C@@H]1CCN(c2ccnc3ccc(-c4ccc(C(F)(F)F)nc4)nc23)C1 [Compound 13, (3R)-1-[6-[6-(Trifluoromethyl)pyridin-3-yl]-1,5-naphthyridin-4-yl]pyrrolidin-3-amine]
[6]; [10]
  IC50: 110 ± 13 nM
[2]
  IC50: 1200 ± 481 nM
[3]; [8]
  IC50: 60 ± 8 nM
[4]; Cricetulus griseus, CHO
  IC50: 20 µM
[5]
  solubility at 20 h: 135 µM (≈ 48.5 µg/mL)

## FC(F)(F)c1ccc(-c2ccc3nccc(N[C@H]4CCNC4)c3n2)cn1 [Compound 15, N-[(3S)-Pyrrolidin-3-yl]-6-[6-(trifluoromethyl)pyridin-3-yl]-1,5-naphthyridin-4-amine]
[2]
  IC50: 164 ± 69 nM
[3]; [8]
  IC50: 70 ± 13 nM
[4]; Cricetulus griseus, CHO
  IC50: 46 µM
[5]
  solubility at 20 h: 200 µM (≈ 71.9 µg/mL)

## FC(F)(F)c1ccc(-c2ccc3nccc(OC4CCNCC4)c3n2)cn1 [Compound 19, 8-Piperidin-4-yloxy-2-[6-(trifluoromethyl)pyridin-3-yl]-1,5-naphthyridine]
[2]
  IC50: 265 ± 160 nM
[3]; [8]
  IC50: 3850 ± 954 nM
[1]; [9]
  IC50: 94 ± 3 µM

## OCCN1CCC(Nc2ccnc3ccc(-c4ccc(C(F)(F)F)nc4)nc23)CC1 [Compound 22, 2-[4-[[6-[6-(Trifluoromethyl)pyridin-3-yl]-1,5-naphthyridin-4-yl]amino]piperidin-1-yl]ethanol]
[6]; [10]
  IC50: 385 ± 41 nM
[2]
  IC50: 303 ± 74 nM
[3]; [8]
  IC50: 253 ± 2 nM
[5]
  solubility at 20 h: 145 µM (≈ 60.5 µg/mL)

## CN1CCC(Nc2cc(=O)[nH]c3ccc(-c4ccc(C(F)(F)F)nc4)nc23)CC1 [Compound 37, 4-[(1-Methylpiperidin-4-yl)amino]-6-[6-(trifluoromethyl)pyridin-3-yl]-1H-1,5-naphthyridin-2-one]
[2]
  IC50: > 10000 nM
[3]; [8]
  IC50: 4200 ± 1000 nM
[5]
  solubility at 20 h: 45 µM (≈ 18.2 µg/mL)

## CS(=O)(=O)c1ccc(-c2cnc(N)c(-c3ccc(C(F)(F)F)nc3)c2)cc1 [MMV390048, reference compound]
[3]; [8]
  IC50: 36 nM
[7]; Plasmodium falciparum, 72 h, read-out: ABS IC50 for PfPI4K cKD, N=1, +aTc, experiment N=1, +aTc (500 nM, control conditions), 72 hours
  IC50: 31 nM
[7]; Plasmodium falciparum, 72 h, read-out: ABS IC50 for PfPI4K cKD, N=1, no aTc, experiment N=1, no aTc (PI4K knockdown), 72 hours
  IC50: 4 nM
[7]; Plasmodium falciparum, 72 h, read-out: ABS IC50 for PfPI4K cKD, N=2, +aTc, experiment N=2, +aTc (500 nM, control conditions), 72 hours
  IC50: 29 nM
[7]; Plasmodium falciparum, 72 h, read-out: ABS IC50 for PfPI4K cKD, N=2, no aTc, experiment N=2, no aTc (PI4K knockdown), 72 hours
  IC50: 4.31 nM
[7]; Plasmodium falciparum, 72 h, read-out: ABS IC50 for PfPI4K cKD, N=3, +aTc, experiment N=3, +aTc (500 nM, control conditions), 72 hours
  IC50: 25 nM
[7]; Plasmodium falciparum, 72 h, read-out: ABS IC50 for PfPI4K cKD, N=3, no aTc, experiment N=3, no aTc (PI4K knockdown), 72 hours
  IC50: 3.48 nM
[7]; Plasmodium falciparum, read-out: ABS IC50 for PfPI4K cKD, Mean + SD, +aTc, mean of N=3, +aTc (control conditions)
  IC50: 26 ± 3 nM
[7]; Plasmodium falciparum, read-out: ABS IC50 for PfPI4K cKD, Mean + SD, no aTc, mean of N=3, no aTc (PI4K knockdown)
  IC50: 3.7 ± 0.4 nM
[7]; read-out: ABS IC50 for PfPI4K cKD, N=1, +aTc, experiment N=1, +aTc (500 nM, control conditions), 72 hours
  IC50: 27 nM
[7]; read-out: ABS IC50 for PfPI4K cKD, N=2, +aTc, experiment N=2, +aTc (500 nM, control conditions), 72 hours
  IC50: 21 nM
[7]; read-out: ABS IC50 for PfPI4K cKD, N=2, no aTc, experiment N=2, no aTc (PI4K knockdown), 72 hours
  IC50: 3.39 nM
[7]; read-out: ABS IC50 for PfPI4K cKD, N=3, +aTc, experiment N=3, +aTc (500 nM, control conditions), 72 hours
  IC50: 23 nM
[7]; read-out: ABS IC50 for PfPI4K cKD, N=3, no aTc, experiment N=3, no aTc (PI4K knockdown), 72 hours
  IC50: 3.31 nM

## (R)-6-(6-Methoxypyridin-3-yl)-N-(pyrrolidin-3-yl)-1,5-naphthyridin-4-amine [Compound 34]
[6]
  IC50: 667 ± 60 nM
[2]
  IC50: 111 ± 69 nM
[3]
  IC50: 225 ± 7 nM
[4]
  IC50: 17 µM
